The experiment deals with N2a-mLRP4 cells. The experiment is described as follows: Steady-state FAM-Aβ42 accumulation (continuous feeding), FACS. The format is cell-based, mouse. The settings on record: for levels of FAM-Aβ42 in N2a-mLRP4 cells compared to N2a-pcDNA3 cells: 500 nM FAM-Aβ42, 37°C, n = 3. Here is the method: To determine whether internalized Aβ42 is accumulated over time, we performed continuous feeding experiments of FAM-Aβ42 in N2a-pcDNA3 and N2a-mLRP4 cells. The steady-state levels and localization of Aβ42 were determined by flow cytometry and confocal microscopy, respectively (Fig. 2). Cells were incubated with 500 nM FAM-Aβ42 at 37°C for 24, 48 or 72 h and the content of fluorescence per cell was quantified by FACS and presented as a percentage of the levels in N2a-pcDNA3 at each time point (Fig. 2A). […] Therefore, we analyzed the subcellular localization of internalized FAM-Aβ42 by confocal microscopy in N2a cells treated as before and analyzed co-localization with lysosomes. For the visualization of acidic organelles, a brief incubation with LysoTracker Red at the end of the experiment was included (Fig. 2B). After 24 h of incubation, a small amount of cell-associated Aβ42 can be detected in N2a-mLRP4 cells.
Figure 2 Increased accumulation of intracellular Aβ42 within lysosomes in LRP1 minireceptor-expressing cells. A, increased Aβ42 accumulation in LRP1 minireceptor-expressing cells. N2a-mLRP4 and N2a-pcDNA3 cells were treated with 500 nM of FAM-Aβ42 at 37°C for 24, 48 and 72 h, and steady-state levels of intracellular Aβ42 were determined by flow cytometric analyses of pronase-treated cells as described in the Experimental Procedures. […] B, increased co-localization of intracellular Aβ42 and lysosomes in N2a-mLRP4 cells. N2a-pcDNA3 and N2a-mLRP4 cells were grown in glass chamber slides and treated with 500 nM of FAM-Aβ42 at 37°C for 24, 48 and 72 h. Lysosomes were labeled with LysoTracker 30 min before the end of each incubation. Cells were then fixed and analyzed by confocal microscopy.
For quantification of Aβ uptake experiments, stable N2a cells were plated into 12-well plates at 16,250 cells/cm^2 and grown overnight. Similar to imaging assays, cells were washed twice with PBS and incubated for the indicated periods of time with pre-warmed internalization media containing 500 nM FAM -Aβ42. After incubation, cells were washed twice with PBS and non-enzymatically detached as before in 500 µL cell dissociation solution. Cells were sequentially washed once with 1 mL of cold internalization media and twice with 2 mL cold PFN. Cells were finally resuspended in PFN-1% PFA and analyzed by FACS as before. For MEF-1 and MEF-2 experiments, 5,000 cells/cm^2 were plated in 12-well plates the day before. Cells were then washed twice with PBS and incubated 4 h with pre-warmed internalization media containing 500 nM FAM-Aβ42. After completion of the incubation time, cells were processed by FACS analysis as described above for N2a cells.
LRP1 knockdown was carried out in GT1-7 cells by siRNA transfection using Lipofectamine 2000 (Invitrogen, Carlslab, CA) and 120 nM of dsRNA duplex (Ambion, Austin, TX). Briefly, cells were plated in 6-well plates the day before transfection and grown overnight. Scrambled and LRP1 siRNA duplexes were generated according to the manufacturer's instruction and complexed with Lipofectamine 2000 as previously described. FAM-Aβ42 experiments were performed 72 h after siRNA transfection and analyzed as previously described for N2a cells. For clathrin heavy chain knockdown, shRNA lentiviruses were produced in the Viral Vectors Core facility at Washington University School of Medicine. In brief, 293T cells were transfected with pLKO.1-derived constructs together with the pHR'8.2ΔR and pCMV-VSV-G packaging systems as previously described. […]

As to “FAM-Aβ42: FAM-Aβ42 peptide (23526) from Anaspec; amyloid-β 42 with carboxyfluorescein at the N-terminal region”, the “levels of FAM-Aβ42 in N2a-mLRP4 cells compared to N2a-pcDNA3 cells” value is “slight increase” (24 h, FACS of pronase-treated cells); “twice the levels” (48 h, FACS of pronase-treated cells); “twice the levels” (72 h, FACS of pronase-treated cells). Besides, the “cell-associated FAM-Aβ42 in N2a-mLRP4 cells compared to N2a-pcDNA3 cells” value (500 nM, 48 h, FACS, pronase-treated and untreated cells) was “increases”. Also, the “FAM-Aβ42 uptake in clathrin knocked down cells compared to control, empty lentivirus” value (N2a-mLRP4, clathrin heavy chain shRNA lentivirus, 500 nM, 48 h, FACS of pronase-treated cells) is recorded as “twofold decrease”.

These data come from article PMC2912373, “Low-Density Lipoprotein Receptor-Related Protein 1 (LRP1) Mediates Neuronal Aβ42 Uptake and Lysosomal Trafficking” (PLoS ONE, 2010).
